Source: patent US10532109B2, “Peptide-DNA chimeras for treatment of HER overexpressing cancers” (ARIZONA BOARD OF REGENTS ON BEHALF OF ARIZONA STATE …, priority 2016, dated 2020)
“Also recorded” adds a separate entry of the source. Like-named read-outs stand apart in the source and are kept apart here.

Legend:
[1] = test system: BT474 human breast cancer cells (overexpression of HER2); test: Cancer cell inhibition assay (MTT), BT474; type: cell-based; settings: for inhibition at 0.32 µM: BT-474, 320 nM doxorubicin, free or as 6.4 nM IV (1:50 III-doxorubicin); for inhibition at 0.32 µM / inhibition at 0.64 µM: read-out: inhibition of BT474 cell growth; for inhibition at 0.64 µM: BT-474, 640 nM doxorubicin, free or as 12.8 nM IV
Procedure: Exponentially growing BT474 cells and MDA-MB-231 cells were harvested and plated in 96-well plates at a concentration of 2×10^4 cells/well for BT474 cells and 5×10^4 cells/well for MDA-MB231 cells. […] Then 20 μL of MTT (5 mg/mL) was added to each well and the plates were incubated at 37° C. for 4 hours. The supernatant was discarded, and 100 μL of DMSO was added to each well. The absorbance was recorded at 490 nm after 15 minutes. Inhibition of cell growth was obtained by the following formula: Inhibition (%)=(ODTreatment−ODbackground)/(ODNagative control−ODbackground)×100%

[2] = test system: MDA-MB-231 human breast cancer cells (low expression of HER2 receptor); test: Cancer cell inhibition assay (MTT), MDA-MB-231; type: cell-based; settings: 48, 72, 96 h
Procedure: BT474 human breast cancer cells (ATCC® HTB-20™, overexpression of HER2) and MDA-MB-231 human breast cancer cells (ATCC® HTB-26™, low expression of HER2 receptor) were cultured at 37° C. in a 5% CO2 atmosphere and grown in Gibco® RPMI 1640 medium supplemented with 10% fetal bovine serum (FBS) and 1% antibiotic-antimycotic mix antibiotic supplement before use.
Exponentially growing BT474 cells and MDA-MB-231 cells were harvested and plated in 96-well plates at a concentration of 2×10^4 cells/well for BT474 cells and 5×10^4 cells/well for MDA-MB231 cells. […] Then 20 μL of MTT (5 mg/mL) was added to each well and the plates were incubated at 37° C. for 4 hours. The supernatant was discarded, and 100 μL of DMSO was added to each well. The absorbance was recorded at 490 nm after 15 minutes. Inhibition of cell growth was obtained by the following formula: […]
Data are reported as the mean of three independent experiments, each run in quintuplicate.

[3] = test system: BT474 cells; test: HER2 binding assay (fluorescence microscopy), BT474; type: cell-based, human; settings: 1 μM; 1 hour
Procedure: (§1) BT474 cells and MDA-MB-231 cells were grown on glass bottom microwell disks at a cell density of approximately 10,000 cells/well at 37° C. for 48 hours. […] Then the cells were stained using 2.5 μg/mL DAPI (Invitrogen) for 30 minutes after the cells were rinsed with phosphate buffered saline (PBS) for two times. Finally, the cells were fixed with 4% paraformaldehyde for 10 minutes. The fluorescent images were obtained using a fluorescence microscope (Nikon Ti-U, Japan) with red and green filters. Thereafter, all images were recorded and the target cells counted using a 40× oil objective. To ensure accurate intensity measurements, the exposure time (3000 ms) and laser time were kept the same. The mean pixel intensity within the region of interest was calculated. Data are reported as the mean of three independent experiments, each run in quintuplicate. The data was expressed as mean±SD.

[4] = test system: MDA-MB-231 cells; test: HER2 binding assay (fluorescence microscopy), MDA-MB-231; type: cell-based, human; settings: 1 μM; 1 hour
Procedure: as §1

Q: What does the source list for `COc1cccc2c1C(=O)c1c(O)c3c(c(O)c1C2=O)C[C@@](O)(C(=O)CO)C[C@@H]3O[C@H]1C[C@H](N)[C@H](O)[C@H](C)O1` [doxorubicin]?
A: inhibition at 0.32 µM ([1]; 48 h): 19%; inhibition at 0.32 µM ([1]; 72 h): 43%; inhibition at 0.32 µM ([1]; 96 h): 44%; inhibition at 0.64 µM ([1]; 48 h): 36%; inhibition at 0.64 µM ([1]; 72 h): 68%; inhibition at 0.64 µM ([1]; 96 h): 78%; inhibition at 0.16 µM ([1]; BT-474, read-out: average inhibition of BT474 cell growth): 10%; fold higher average percent inhibition of MDA-MB-231 by doxorubicin than IV ([2]; 160 nM doxorubicin concentration): 1.0-2.3 fold; fold higher average percent inhibition of MDA-MB-231 by doxorubicin than IV ([2]; 320 nM doxorubicin concentration): 1.3-2.0 fold; fold higher average percent inhibition of MDA-MB-231 by doxorubicin than IV ([2]; 640 nM doxorubicin concentration): 1.6-2.0 fold; binding ability to BT474 cells (fluorescence on cell surface, in words) [3]: relatively weak fluorescence intensity; also recorded: relatively weak ability; binding selectivity between BT474 and MDA-MB-231 cells [3]: did not show any binding selectivity; also recorded: did not shown any selectivity; binding ability to MDA-MB-231 cells (fluorescence on cell surface, in words) [4]: relatively weak fluorescence intensity; also recorded: relatively weak ability
